Results taken from publication PMC9343874, “Comparative Pharmacokinetics of Cinobufacini Capsule and Injection by UPLC-MS/MS” (Frontiers in Pharmacology, 2022).
Where two headings read alike, the source gives them in different places.

What was measured:
[1] = Pharmacokinetic study in rats after oral administration of cinobufacini capsule (UPLC-MS/MS of plasma); type: in vivo, rat; conditions: for AUC(0-inf) / AUC(0-t) / Cmax / Tmax / CL/F / MRT last / MRT inf / half-life / Vd/F: male, Sprague-Dawley, in vivo, rat plasma, mean ± SD, n = 6; for CL/F: read-out: CLz/F (converted); for MRT last: read-out: MRT0-t; for MRT inf: read-out: MRT0-∞; for half-life: read-out: T1/2z (converted); for Vd/F: read-out: Vz/F
Method: Male Sprague–Dawley rats (weighing 200–220 g) of SPF grade were offered by Sippr/BK laboratory Animal, Corp., Ltd. (Shanghai, China) and fed in the Laboratory Animal Center of the Shanghai University of Traditional Chinese Medicine. All the rats were kept under environmentally controlled conditions with constant temperature (22–24°C) and humidity (60–65%). The animal experiment program in the present research was approved by the Animal Committee of the Shanghai University of Traditional Chinese Medicine (PZSHUTCM210618012).
An Agilent 1290 liquid chromatographic system includes a G4220A quaternary pump, a G1326C column incubator, a G4226A automatic sampler, and a G1330B degasser. The column temperature was set to 35°C. A measure of 5 µL of samples were separated in an Agilent SB-C18 column (2.1 mm ×50 mm, 1.8 μm) and eluted at 0.3 ml/min, followed by gradient elution with water (0.1% V/V formic acid) (A) and acetonitrile (B) (0–1 min, 20%–20% B; 1–3.5 min, 20%–80% B; 4–4.1 min, 80%-20% B; 4.1–6 min, 20% B). The total run time was 6 minutes.
An Agilent 1290 Infinity series UPLC system was combined with an Agilent 6460 series triple quadrupole mass spectrometer (Agilent Technologies, Santa Clara, CA, United States) to quantify all 13 analytes in an ESI-positive ionization mode. Quantitative analysis was performed in an MRM mode. The mass spectrum conditions were as follows: capillary voltage, 4000V; drying gas (N2), gas flow rate: 10 L/min; sprayer, 30 psi; gas temperature 350°C; The delta EMV (+) 200 V; collision gas (N2); dwell time, 25 ms. Agilent’s MassHunter Workstation software was used for data collection, peak area calculation, and quantitative analysis.
A measure of 50 µL of the plasma sample was mixed with 10 µL of the internal standard solution (345 ng/ml) in a 1.5-ml centrifuge tube and vortexed for 5 min. The samples were extracted by 500 µL of ethyl acetate for 5 min and centrifuged at 4°C for 10 min (18000 rpm). All the supernatants were collected into another 1.5-ml centrifuge tube, dried under a gentle stream of nitrogen at 37°C, and then added with 50 µL of 80% methanol for resolution. The resolution samples were centrifuged at 4°C for 10 min (18000 rpm), and 5 µL supernatant was extracted and injected for analysis.
Twenty-four male Sprague–Dawley rats (weigh 200–220 g) were divided into four groups with six rats in each group randomly, including three capsule groups at three different doses and one injection group. In the instructions for cinobufacini capsule and injection, the clinical dosage for adults is 2 g per 70 kg orally and 20 ml per 70 kg intravenously, converting to rat doses of 180 mg/kg and 1.8 ml/kg, respectively.
In the pre-experiments, we compared cinobufacini capsule of 180 mg/kg (one-time clinical dose) and 900 mg/kg (five times of clinical dose) and Cinobufacini injection of 1.8 ml/kg, but concentrations of some compounds in plasma were too low and difficult to be quantified. […] The experimental rats were led to fast the night and were free to get access to water for 12 h before the pharmacokinetic study. After administration, blood samples (approximately 150 μL) of rats were collected via retro-orbital sinus into heparinized centrifuge tubes at 0.05, 0.083, 0.25, 0.5, 0.75, 1, 2, 4, 6, 8, and 10 h. After centrifugation at 5,000 rpm for 10 min, the plasma was transferred to 1.5-ml polypropylene tubes and stored at −80°C until UPLC-MS/MS analysis.
GraphPad Prism software (version 8.0.2) was used to draw the mean plasma concentration–time curves of all analytes. The pharmacokinetic parameters were calculated by DAS 3.2.8 software. Meanwhile, the pharmacokinetic data on rats were presented as mean ± standard deviation (SD). Differences of pharmacokinetic parameters between groups were analyzed by the t-test using SPSS software (version 26.0). Differences were considered significant statistically when the p-values were <0.05 and very significant statistically when the p-values were <0.01.

[2] = Stability of analytes in rat plasma QC samples under storage conditions; type: physicochemical; conditions: n = 6; for Stability during 24 h at 4°C, RE: post-treatment storage in autosampler; for −80°C for 30 days, RE / Three freeze–thaw cycles, RE: rat plasma; for −80°C for 30 days, RE: long-term; for Three freeze–thaw cycles, RE: −80°C to room temperature
Method: The stability of QC samples in six replicates at three concentrations (low, medium, and high levels) was analyzed under different storage conditions: the post-treatment stability was analyzed after storage in an autosampler (4°C) for 24 h. Freeze–thaw stability was investigated after three freeze–thaw cycles (−80°C to room temperature as one cycle). Long-term stability was assessed by analyzing QC samples kept at −80°C for 30 days. The concentrations of the analytes in the plasma samples and the QC samples were calculated by the calibration standard curve prepared each day. The stabilities of analytes were acceptable when the accuracy (RE, %) and precision (RSD, %) of all QC samples in all storage conditions were within ±15% compared to nominal concentrations.

[3] = oral cinobufacini capsule 0.9 g/kg (low)
[4] = oral cinobufacini capsule 1.8 g/kg (medium)
[5] = oral cinobufacini capsule 3.6 g/kg (high)
[6] = high QC level (249.58–250.28 ng/ml)
[7] = medium QC level (49.92–50.06 ng/ml)

Structure (SMILES) | AUC(0-inf) [1, 3] [ng·h/mL] | AUC(0-t) [1, 3] [ng·h/mL] | Cmax [1, 3] [ng/mL] | Tmax [1, 3] [min] | CL/F [1, 3] [mL/min/kg] | MRT last [1, 3] [min] | MRT inf [1, 3] [min] | half-life [1, 3] [min] | Vd/F [1, 3] [L/kg] | AUC(0-inf) [1, 4] [ng·h/mL] | AUC(0-t) [1, 4] [ng·h/mL] | Cmax [1, 4] [ng/mL] | Tmax [1, 4] [min] | CL/F [1, 4] [mL/min/kg] | MRT last [1, 4] [min] | MRT inf [1, 4] [min] | half-life [1, 4] [min] | Vd/F [1, 4] [L/kg] | AUC(0-inf) [1, 5] [ng·h/mL] | AUC(0-t) [1, 5] [ng·h/mL] | further results
C[C@]12CC[C@H](O)C[C@H]1CC[C@@H]1[C@@H]2CC[C@]2(C)[C@@H](c3ccc(=O)oc3)[C@@H](O)[C@H]3O[C@]132 [DCG, desacetylcinobufagin] | 67 ± 15.3 | 61.7 ± 7.8 | 17.2 ± 4.77 | 49.8 ± 12 | 13 | 237 ± 43.8 | 284 ± 93.6 | 73.2 ± 48.6 | 2.8 ± 1.71 | 112 ± 14.9 | 100 ± 12.4 | 35.6 ± 2.59 | 53.4 ± 7.8 | 12 | 180 ± 37.8 | 292 ± 27.6 | 286 ± 31.2 | 5.62 ± 0.68 | 150 ± 30 | 148 ± 30.2 | Cmax [1, 5]: 56.6 ± 7.79 ng/mL; Tmax [1, 5]: 49.2 ± 7.2 min; CL/F [1, 5]: 17.2 mL/min/kg; MRT last [1, 5]: 146 ± 24.6 min; MRT inf [1, 5]: 159 ± 26.4 min; half-life [1, 5]: 125 ± 36 min; Vd/F [1, 5]: 2.79 ± 1.51 L/kg; time to reach maximum plasma concentration (Cmax) ([1]; rats, after gavage administration of cinobufacini capsule): ≤ 60 min; Stability during 24 h at 4°C, RE [2, 6]: 4.6%; Stability during 24 h at 4°C, RE ([2]; low QC level (4.99–5.00 ng/ml)): 1.5%; Stability during 24 h at 4°C, RE [2, 7]: 6.7%; −80°C for 30 days, RE [2, 6]: −3.8%; −80°C for 30 days, RE ([2]; low QC level (4.99–5.00 ng/ml)): 1.9%; −80°C for 30 days, RE [2, 7]: 3.8%; Three freeze–thaw cycles, RE [2, 6]: −2.8%; Three freeze–thaw cycles, RE ([2]; low QC level (4.99–5.00 ng/ml)): 3.0%; Three freeze–thaw cycles, RE [2, 7]: 4.9%
C[C@]12CC[C@H](O)C[C@@]1(O)CC[C@@H]1[C@@H]2CC[C@]2(C)[C@@H](c3ccc(=O)oc3)[C@@H](O)[C@H]3O[C@]132 [DCT, desacetylcinobufotalin] | 13.4 ± 3.76 | 13 ± 3.69 | 6.94 ± 5.35 | 52.2 ± 37.8 | 66 | 152 ± 59.4 | 177 ± 107 | 49.8 ± 15 | 5.16 ± 2.57 | 35.7 ± 12.1 | 34.2 ± 10.4 | 12.3 ± 3.11 | 36.6 ± 19.2 | 50.3 | 161 ± 52.8 | 186 ± 55.2 | 118 ± 81.6 | 8.27 ± 5.18 | 62.7 ± 16.8 | 61.2 ± 16.1 | Cmax [1, 5]: 22.2 ± 5.19 ng/mL; Tmax [1, 5]: 23.4 ± 12 min; CL/F [1, 5]: 42.5 mL/min/kg; MRT last [1, 5]: 137 ± 22.2 min; MRT inf [1, 5]: 152 ± 34.8 min; half-life [1, 5]: 91.8 ± 49.2 min; Vd/F [1, 5]: 5.59 ± 3.29 L/kg; Stability during 24 h at 4°C, RE [2, 6]: 9.6%; Stability during 24 h at 4°C, RE ([2]; low QC level (4.99–5.00 ng/ml)): 11.4%; Stability during 24 h at 4°C, RE [2, 7]: 7.3%; −80°C for 30 days, RE [2, 6]: 8.7%; −80°C for 30 days, RE ([2]; low QC level (4.99–5.00 ng/ml)): 2.4%; −80°C for 30 days, RE [2, 7]: 12.7%; Three freeze–thaw cycles, RE [2, 6]: 7.3%; Three freeze–thaw cycles, RE ([2]; low QC level (4.99–5.00 ng/ml)): 3.7%; Three freeze–thaw cycles, RE [2, 7]: 12.1%
C[C@]12CC[C@H](O)C[C@H]1CC[C@@H]1[C@@H]2[C@H](O)C[C@]2(C)[C@@H](c3ccc(=O)oc3)CC[C@]12O [GBL, gamabufotalin] | 13.6 ± 3.08 | 10.8 ± 2.45 | 13.3 ± 5.28 | 15 | 150 | 24.6 ± 6.6 | 38.4 ± 9.6 | 22.2 | 4.75 ± 0.98 | 23.4 ± 15 | 21.9 ± 11.6 | 21.5 ± 7.57 | 27.6 ± 13.8 | 210 | 43.8 ± 6 | 47.4 ± 13.2 | 16.8 ± 15.6 | 3.03 ± 2.02 | 54.5 ± 12.4 | 54 ± 12 | Cmax [1, 5]: 49.5 ± 10.9 ng/mL; Tmax [1, 5]: 21.6 ± 12 min; CL/F [1, 5]: 153 mL/min/kg; MRT last [1, 5]: 49.8 ± 7.2 min; MRT inf [1, 5]: 51.6 ± 8.4 min; half-life [1, 5]: 18 ± 9.6 min; Vd/F [1, 5]: 3.74 ± 1.66 L/kg; Stability during 24 h at 4°C, RE [2, 6]: 5.4%; Stability during 24 h at 4°C, RE ([2]; low QC level (4.99–5.00 ng/ml)): 12.0%; Stability during 24 h at 4°C, RE [2, 7]: 10.9%; −80°C for 30 days, RE [2, 6]: −4.9%; −80°C for 30 days, RE ([2]; low QC level (4.99–5.00 ng/ml)): 8.3%; −80°C for 30 days, RE [2, 7]: 12.4%; Three freeze–thaw cycles, RE [2, 6]: −0.6%; Three freeze–thaw cycles, RE ([2]; low QC level (4.99–5.00 ng/ml)): 13.2%; Three freeze–thaw cycles, RE [2, 7]: 10.7%
